Test results from patent publication US20220274961A1, “SUBSTITUTED FUSED BI- OR TRI- HETEROCYCLIC COMPOUNDS AS EHMT2 INHIBITORS” (priority 2016, published 2022).

The compounds below were run against T1, EHMT1 (Homo sapiens, UniProt Q9H9B1) (assay: EHMT1 PEP).
T1 sequence (Q9H9B1 1-1298): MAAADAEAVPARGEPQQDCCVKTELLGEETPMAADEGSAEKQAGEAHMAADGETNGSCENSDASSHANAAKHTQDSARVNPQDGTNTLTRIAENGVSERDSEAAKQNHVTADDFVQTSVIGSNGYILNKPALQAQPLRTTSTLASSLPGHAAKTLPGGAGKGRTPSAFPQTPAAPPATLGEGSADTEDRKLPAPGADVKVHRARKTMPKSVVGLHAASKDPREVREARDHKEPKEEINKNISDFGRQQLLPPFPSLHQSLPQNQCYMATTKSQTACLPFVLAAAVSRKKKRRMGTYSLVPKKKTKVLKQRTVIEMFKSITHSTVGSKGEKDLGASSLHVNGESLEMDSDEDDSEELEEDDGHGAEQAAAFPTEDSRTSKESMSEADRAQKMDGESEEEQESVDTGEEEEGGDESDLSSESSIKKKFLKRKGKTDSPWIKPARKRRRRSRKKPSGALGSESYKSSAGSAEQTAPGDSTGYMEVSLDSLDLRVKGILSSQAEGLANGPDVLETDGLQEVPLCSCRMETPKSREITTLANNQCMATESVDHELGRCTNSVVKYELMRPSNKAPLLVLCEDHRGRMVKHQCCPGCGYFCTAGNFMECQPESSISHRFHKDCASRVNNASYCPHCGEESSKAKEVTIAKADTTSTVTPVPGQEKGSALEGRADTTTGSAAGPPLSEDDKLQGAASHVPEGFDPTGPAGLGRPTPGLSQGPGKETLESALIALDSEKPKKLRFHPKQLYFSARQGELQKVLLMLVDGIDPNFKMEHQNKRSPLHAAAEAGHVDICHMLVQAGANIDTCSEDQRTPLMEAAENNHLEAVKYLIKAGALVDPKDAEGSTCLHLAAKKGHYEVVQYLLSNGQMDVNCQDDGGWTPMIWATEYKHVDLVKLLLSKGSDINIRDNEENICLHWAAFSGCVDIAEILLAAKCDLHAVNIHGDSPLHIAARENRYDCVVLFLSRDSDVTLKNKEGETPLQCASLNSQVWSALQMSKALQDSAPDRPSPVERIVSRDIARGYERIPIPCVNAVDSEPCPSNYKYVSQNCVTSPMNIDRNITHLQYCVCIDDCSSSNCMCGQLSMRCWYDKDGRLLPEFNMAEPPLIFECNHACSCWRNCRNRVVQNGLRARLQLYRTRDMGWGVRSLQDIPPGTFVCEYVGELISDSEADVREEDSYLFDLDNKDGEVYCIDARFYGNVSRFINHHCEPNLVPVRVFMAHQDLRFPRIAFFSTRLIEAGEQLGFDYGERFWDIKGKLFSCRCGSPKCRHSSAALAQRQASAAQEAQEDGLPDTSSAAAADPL
Format: biochemical

SMILES	IC50 [µM]
COc1cc2[nH]c(N)nc2cc1OCCCN1CCCC1 [Compound 1, 6-methoxy-5-(3-(pyrrolidin-1-yl)propoxy)-1H-benzo[d]imidazol-2-amine]	< 0.1
COc1cc2c(cc1OCCCN1CCCC1)nc(N)n2C [Compound 2, 6-methoxy-1-methyl-5-(3-(pyrrolidin-1-yl)propoxy)-1H-benzo[d]imidazol-2-amine]	< 0.1
COc1cc2c(cc1OCCCN1CCCC1)N=C(N)C21CCOCC1 [Compound 5, 5-methoxy-6-(3-(pyrrolidin-1-yl)propoxy)-2′,3′,5′,6′-tetrahydrospiro[indole-3,4′-pyran]-2-amine]	< 0.1
COc1cc2sc(N)nc2cc1OCCCN1CCCC1 [Compound 6, 6-methoxy-5-[3-(pyrrolidin-1-yl)propoxy]-1,3-benzothiazol-2-amine]	1 to 10
COc1cc2c(cc1OCCCN1CCCC1)N=C(N)C21CCOC1 (stereo not drawn) [Compound 7, 5′-methoxy-6′-(3-(pyrrolidin-1-yl)propoxy)-4,5-dihydro-2H-spiro[furan-3,3′-indol]-2′-amine]	< 0.1
CCN1CC[C@@H](COc2cc3nc(N)n(C4CCCC4)c3cc2OC)C1 [Compound 9, 1-cyclopentyl-5-[[(3R)-1-ethylpyrrolidin-3-yl]methoxy]-6-methoxy-1H-1,3-benzodiazol-2-amine]	< 0.1
COc1cc2c(cc1OCCCN1CCCC1)nc(N)n2CC(F)(F)F [Compound 11, 6-methoxy-5-(3-(pyrrolidin-1-yl)propoxy)-1-(2,2,2-trifluoroethyl)-1H-benzo[d]imidazole-2-amine]	0.1 to 1
COc1cc2c(cc1OCCCN1CCCC1)nc(NCC(F)(F)F)n2C [Compound 12, 6-methoxy-1-methyl-5-(3-(pyrrolidin-1-yl)propoxy)-N-(2,2,2-trifluoroethyl)-1H-benzo[d]imidazol-2-amine]	1 to 10
CNc1nc2cc(OCCCN3CCCC3)c(OC)cc2n1C1CCOCC1 [Compound 13, 6-methoxy-N-methyl-5-(3-(pyrrolidin-1-yl)propoxy)-1-(tetrahydro-2H-pyran-4-yl)-1H-benzo[d]imidazol-2-amine]	< 0.1
CNc1nc2cc(OC[C@H](O)CN3CCC3)c(OC)cc2n1C [Compound 25]	< 0.1
CCNc1nc2cc(OCCCN3CCCC3)c(OC)cc2n1C [Compound 27]	< 0.1
COc1cc2c(cc1OCCCN1CCCC1)nc(NC1CCCC1)n2C [Compound 30]	0.1 to 1
COc1cc2c(cc1OC[C@H](O)CN1CCCC1)nc(NC1CCCC1)n2C [Compound 33]	0.1 to 1
COc1cc2c(cc1OC[C@H](O)CN1CCCC1)nc(NCC1CC1)n2C [Compound 34]	< 0.1
CNc1nc2cc(CNCCN3CCCC3)c(OC)cc2n1C [Compound 37]	< 0.1
CCn1c(NC)nc2cc(OCCCN3CCCC3)c(OC)cc21 [Compound 42]	< 0.1
CCNC1=Nc2cc(CNCCN3CCCC3)c(OC)cc2C12CCC2 [Compound 71]	< 0.1
CCNC1=Nc2cc(CNCCN3CCC3)c(OC)cc2C12CCC2 [Compound 72]	< 0.1
CNC1=Nc2cc(C#CCN3CCCCC3)c(OC)cc2C12CCC2 [Compound 75, 5′-methoxy-N-methyl-6′-(3-(piperidin-1-yl)prop-1-yn-1-yl)spiro[cyclobutane-1,3′-indol]-2′-amine]	< 0.1
COc1cc2c(cc1CNCCN1CCCC1)N=C(NC1CCOCC1)C21CCC1 [Compound 76]	1 to 10
CNC1=Nc2cc(C#CC(C)N3CCCCC3)c(OC)cc2C12CCC2 (stereo not drawn) [Compound 92]	< 0.1
CNC1=Nc2cc(C#CCN3CCC(F)C3)c(OC)cc2C12CCC2 (stereo not drawn) [Compound 100]	0.1 to 1
CNc1nc2cc(CNCCN3CCCC3)c(C)cc2n1C(C)C [Compound 139]	0.1 to 1

Second part, the compound after the results:

IC50 [µM]	SMILES
< 0.1	COc1cc2c(cc1OCCCN1CCCC1)nc(N)n2C1CCCC1 [Compound 3, 1-cyclopentyl-6-methoxy-5-(3-(pyrrolidin-1-yl)propoxy)-1H-benzo[d]imidazol-2-amine]
< 0.1	CNc1nc2cc(OCCCN3CCCC3)c(OC)cc2n1C [Compound 8, 6-methoxy-N,1-dimethyl-5-(3-(pyrrolidin-1-yl)propoxy)-1H-benzo[d]imidazol-2-amine]
< 0.1	CCN1CC(COc2cc3nc(N)n(C4CCCC4)c3cc2OC)C1 [Compound 10, 1-cyclopentyl-5-((1-ethylazetidin-3-yl)methoxy)-6-methoxy-1H-benzo[d]imidazol-2-amine]
0.1 to 1	COc1cc2c(cc1OCCCN1CCCC1)nc(N)n2CC1CCOCC1 [Compound 18]
< 0.1	COc1cc2c(cc1OCCCN1CCCC1)nc(N)n2C(C)C [Compound 19]
1 to 10	COc1cc2c(cc1OCCCN1CCCC1)nc(C)n2C [Compound 21, 6-methoxy-1,2-dimethyl-5-(3-(pyrrolidin-1-yl)propoxy)-1H-benzo[d]imidazole]
1 to 10	COc1cc2c(cc1OCCCN1CCCC1)nc(C1CCCC1)n2C [Compound 22, 2-cyclopentyl-6-methoxy-1-methyl-5-(3-(pyrrolidin-1-yl)propoxy)-1H-benzo[d]imidazole]
1 to 10	COc1cc2c(cc1OCCCN1CCCC1)nc(C)n2C1CCCC1 [Compound 23, 1-cyclopentyl-6-methoxy-2-methyl-5-(3-(pyrrolidin-1-yl)propoxy)-1H-benzo[d]imidazole]
< 0.1	COc1cc2c(cc1C#CCN1CCCC1)N=C(N)C21CCC1 [Compound 24, 5′-methoxy-6′-(3-(pyrrolidin-1-yl)prop-1-yn-1-yl)spiro[cyclobutane-1,3′-indol]-2′-amine]
< 0.1	CNc1nc2cc(OC[C@H](O)CN3CCCC3)c(OC)cc2n1C [Compound 26]
0.1 to 1	COc1cc2c(cc1OCCCN1CCCC1)nc(NC(C)C)n2C [Compound 28]
1 to 10	COc1cc2c(cc1OCCCN1CCCC1)nc(NC1CCOCC1)n2C [Compound 29]
< 0.1	CCNc1nc2cc(OC[C@H](O)CN3CCCC3)c(OC)cc2n1C [Compound 31]
0.1 to 1	COc1cc2c(cc1OC[C@H](O)CN1CCCC1)nc(NC(C)C)n2C [Compound 32]
1 to 10	COc1cc2c(cc1OC[C@H](O)CN1CCCC1)nc(NC1CCOCC1)n2C [Compound 35]
< 0.1	CNc1nc2cc(OCCCN3CCCC3)c(OC)cc2n1C(C)C [Compound 36]
< 0.1	CNc1nc2cc(OC[C@H](O)CN3CCCC3)c(OC)cc2n1C1CCCC1 [Compound 38]
< 0.1	CCNc1nc2cc(OCCCN3CCCC3)c(OC)cc2n1CC [Compound 39]
< 0.1	CNc1nc2cc(CNCCN3CCCC3)c(OC)cc2n1C(C)C [Compound 40]
< 0.1	CCn1c(NC)nc2cc(CNCCN3CCCC3)c(OC)cc21 [Compound 41]
< 0.1	CNC1=Nc2cc(CNCCN3CCCC3)c(OC)cc2C12CCC2 [Compound 70]
< 0.1	CCCNC1=Nc2cc(CNCCN3CCCC3)c(OC)cc2C12CCC2 [Compound 73]
< 0.1	CNC1=Nc2cc(C#CCN3CCCC3)c(OC)cc2C12CCC2 [Compound 74]
< 0.1	CNC1=Nc2cc(C#CC(C)N3CCCC3)c(OC)cc2C12CCC2 (stereo not drawn) [Compound 84]
< 0.1	CNC1=Nc2cc(C#C[C@H](C)N3CCCC3)c(OC)cc2C12CCC2 [Compound 85]
0.1 to 1	CNC1=Nc2cc(C#C[C@@H](C)N3CCCC3)c(OC)cc2C12CCC2 [Compound 86]
< 0.1	COCCNC1=Nc2cc(C#CCN3CCCCC3)c(OC)cc2C12CCC2 [Compound 99]
0.1 to 1	CNc1nc2cc(CNCCN3CCCC3)c(Cl)cc2n1C(C)C [Compound 138]
